Laboratory results from patent publication US20100240598A1, “PEPTIDES AND PEPTIDE MIMETICS TO INHIBIT THE ONSET AND/OR PROGRESSION OF FIBROTIC AND/OR PRE-FIBROTIC PATHOLOGIES” (THE REGENTS OF THE UNIVERSITY OF CALIFORNIA, priority 2009, published 2010).
Entries after “also recorded” stand apart in the source; their conditions may differ. Like-named read-outs stand apart in the source and are kept apart here.

Columns and labels:
[1] = test system: ApoE null mice; test: HDL function after D-4F and/or statin in drinking water for 24 hours; type: in vivo
[2] = test system: mice fed an atherogenic diet; conditions: 20 μg daily; cited from earlier work
[3] = test system: LDL receptor null mice; test: HDL protective capacity in LDL receptor null mice given peptide in drinking water; type: in vivo; conditions: 0.25 or 0.5 mg per ml drinking water, 24 or 48 hrs; mouse HDL at 100 μg/ml
Method: D-4F designated as F, or the apoJ peptide made from D amino acids (D-J336, designated as J) was added to the drinking water of LDL receptor null mice (4 per group) at 0.25 or 0.5 mg per ml of drinking water. After 24- or 48-hrs blood was collected from the mice and their HDL was isolated and tested for its ability to protect against LDL-induced monocyte chemotactic activity. Assay controls included culture wells that received no lipoproteins (no addition), or control human LDL alone (designated as LDL, 200 μg cholesterol/ml), or control LDL+control human HDL (designated as +HDL, 350 μg HDL cholesterol). For testing the mouse HDL, the control LDL was added together with mouse HDL (+F HDL or +J HDL) to artery wall cell cultures. The mouse HDL was added at 100 μg cholesterol/ml respectively.

[4] = test system: ApoE null mice; test: Protection against LDL-induced monocyte chemotactic activity by HDL from apo E null mice given oral peptides; type: in vivo; conditions: for activity of murine HDL against LDL-induced monocyte chemotactic activity: drinking water, 24 hrs, murine HDL at 100 μg/ml
Method: After 24 hrs blood was collected, plasma fractionated by FPLC and fractions containing LDL (designated as mLDL for murine LDL) and fractions containing HDL (designated as mHDL) were separately pooled and HDL protective capacity against LDL oxidation as determined by LDL-induced monocyte chemotactic activity was determined. For the assay controls the culture wells received no lipoproteins (no additions), mLDL alone (at 200 μg cholesterol/ml), or mLDL+standard normal human HDL (designated as Cont. h HDL, at 350 μg HDL cholesterol/ml).
For testing the murine HDL, mLDL together with murine HDL (+F mHDL or +J mHDL) were added to artery wall cell cultures. […] The murine HDL was used at 100 μg cholesterol/ml.

[5] = test system: ApoE null mice; test: HDL Inflammatory Index after D-4F or Reverse D-4F by stomach tube; type: in vivo; conditions: 0, 3, 6, 12 or 25 micrograms by stomach tube, blood 7 hours later
Method: Female apoE null mice were administered by stomach tube 0, 3, 6, 12, or 25 micrograms of D-4F or Reverse D-4F in 100 microliters of water. Blood was obtained 7 hours later and the plasma was fractionated by FPLC. A standard control human LDL was added to human artery wall cells at a concentration of 100 micrograms of LDL-cholesterol/mL (LDL). The resulting monocyte chemotactic activity was normalized to 1.0. The same LDL at the same concentration was added to the human artery wall cells together with HDL at 50 micrograms HDL-cholesterol/mL from a normal human (hHDL) or from the apoE null mice that received the dose of D-4F or Reverse D-4F shown on the X-axis. The resulting monocyte chemotactic activity was normalized to that of the LDL added without HDL. The resulting value is the HDL Inflammatory Index. The results shown are the Mean±S.D. for the data from three separate experiments.

[6] = test system: ApoE null mice; test: Trabecular bone mineral density after D-4F in drinking water; type: in vivo; conditions: drinking water for 6 weeks
[7] = test system: Obese Zucker rats; test: Plasma glucose and lipid hydroperoxides in obese Zucker rats given D-4F; type: in vivo; conditions: 5.0 mg/kg/day intraperitoneal, 10 days, rats 26 weeks of age
Method: Obese Zucker rats 26 weeks of age were bled and then treated with daily intraperitoneal injections of D-4F (5.0 mg/kg/day). After 10 days the rats were bled again plasma glucose and lipid hydroperoxides (LOOH) were determined. *p=0.027; ** p=0.0017.

[8] = test system: ApoE null mice; test: HDL and pre-beta HDL inhibition of LDL-induced monocyte chemotaxis after feeding solution-phase synthesized D-4F; type: in vivo; conditions: 5 micrograms fed, bled twelve hours after feeding was started
Description: ApoE null mice were fed 5 micrograms of the D-4F synthesized as described above (Frgmnt) or the mice were given the same amount of mouse chow without D-4F (Chow). Twelve hours after the feeding was started, the mice were bled and their plasma was fractionated on FPLC.

[9] = mouse, in vivo, po
[10] = Association with pre-beta HDL/HDL and clearance from the circulation after an oral dose
[11] = test system: Human aortic endothelial cells; test: Prevention of LDL-induced monocyte chemotactic activity in vitro, co-incubation; type: cell-based; conditions: co-incubation with control human LDL 200 μg protein/ml, overnight
Method: FIG. 1 illustrates a comparison of the effect of […] et al. (2002) Circulation, 105: 290-292) with the effect of an apoJ peptide made from D amino acids (D-J336, […], SEQ ID NO:999)) on the prevention of LDL-induced monocyte chemotactic activity in vitro in a co-incubation. […] D-J336 or D-4F was added to other wells in a concentration range as indicated plus control human LDL (200 μg protein/ml). Following overnight incubation, the supernatants were assayed for monocyte chemotactic activity.

[12] = test system: Human aortic endothelial cells; test: Prevention of LDL-induced monocyte chemotactic activity by pre-treatment (pre-incubation) of artery wall cells; type: cell-based; conditions: 6 hrs pre-incubation, then control human LDL 200 μg protein/ml
Method: FIG. 2 illustrates a comparison of the effect of D-4F with the effect of D-J336 on the prevention of LDL induced monocyte chemotactic activity in a pre-incubation. Human aortic endothelial cells were pre-incubated with D-J336 or D-4F at 4, 2, and 1 μg/ml for DJ336 or 100, 50, 25, and 12.5 μg/ml for D-4F for 6 hrs. The cultures were then washed and were incubated with medium alone (no addition), or with control human LDL (200 μg protein/ml), or with control human LDL+control human HDL (350 μg HDL protein/ml) as assay controls. The wells that were pre-treated with peptides received the control human LDL at 200 μg protein/ml. Following overnight incubation, the supernatants were assayed for monocyte chemotactic activity.

[13] = test system: ApoE null mice; test: Ability of LDL from apoE null mice given oral peptides to induce monocyte chemotactic activity (LDL susceptibility to oxidation); type: in vivo; conditions: added to the drinking water, 24 hrs
Method: FIG. 5 illustrates the effect of oral apo A-1 peptide mimetic and apoJ peptide on LDL susceptibility to oxidation. […] After 24 hrs blood was collected from the mice shown in FIG. 4, plasma fractionated by FPLC and fractions containing LDL (designated as mLDL for murine LDL) were pooled and LDL susceptibility to oxidation as determined by induction of monocyte chemotactic activity was determined. For the assay controls the culture wells received no lipoproteins (no additions), mLDL alone (at 200 μg cholesterol/ml), or mLDL+standard normal human HDL (designated as Cont. h HDL, 350 μg HDL cholesterol).
Murine LDL, mLDL, from mice that received the D-4F (F mLDL) or those that received the apoJ peptide (J mLDL) were added to artery wall cell cultures.

[14] = test system: ApoE null mice; test: HDL protective capacity against PAPC oxidation by HPODE, HDL from apo E null mice given oral peptides; type: in vivo; conditions: added to the drinking water, 24 hrs; murine HDL 100 μg cholesterol/ml
Method: After 24 hrs blood was collected, plasma fractionated by FPLC and fractions containing HDL (designated as mHDL) were pooled and HDL protective capacity against PAPC oxidation as determined by the induction of monocyte chemotactic activity was determined. For the assay controls the culture wells received no lipoproteins (no additions), the phospholipid PAPC at 20 μg/ml+HPODE, at 1.0 μg/ml, or PAPC+HPODE plus standard normal human HDL (at 350 μg HDL cholesterol/ml and designated as +Cont. h HDL).
For testing the murine HDL, PAPC+HPODE together with murine HDL (+F mHDL or +J mHDL) were added to artery wall cell cultures. […] The murine HDL was used at 100 μg cholesterol/ml.

[15] = test system: PON1; conditions: added to the drinking water, 24 hrs
Method: After 24 hrs blood was collected and plasma was assayed for PON1 activity.

[16] = test system: human LDL; test: Treating human LDL in vitro, removal of seeding molecules; type: biochemical
Description: (§1) We discovered that normal HDL inhibits three steps in the formation of mildly oxidized LDL. […] These seeding molecules were required for cocultures of human artery wall cells to be able to oxidize LDL and for the LDL to induce the artery wall cells to produce monocyte chemotactic activity.

[17] = test system: mice; test: LDL oxidation resistance after injection of apo A-I into mice; type: in vivo
Description: as §1

[18] = test system: human volunteers; test: LDL oxidation resistance after infusion of apo A-I into humans; type: in vivo
Description: as §1

Which “HDL function, statin alone” value ([1]; 0.05 mg/ml in drinking water for 24 hours) does the source give for `CC(C)c1c(C(=O)Nc2ccccc2)c(-c2ccccc2)c(-c2ccc(F)cc2)n1CC[C@@H](O)C[C@@H](O)CC(=O)O` [atorvastatin, reference compound] here?
The value was “did not improve HDL function”.

For “Ac-D-W-L-K-A-F-Y-D-K-V-F-E-K-F-K-E-F-F-NH2 (Ac-DWLKAFYDKVFEKFKEFF-NH2) [Peptide 5F]”, which “LDL oxidation and induction of monocyte chemotactic activity, PBS-injected versus peptide-injected mice” value [2] is on record?
The value was “more readily oxidized and more readily induced monocyte chemotactic activity”.

With “Ac-DWFKAFYDKVAEKFKEAF-NH2 [Peptide D-4F]” as the compound, how does the “activity of mouse HDL in preventing control LDL from inducing monocyte chemotactic activity” value [3] read?
Its value is “as active as 350 μg/ml of control human HDL”.

And the “activity of murine HDL against LDL-induced monocyte chemotactic activity” value [4]?
Its value is “as active as 350 μg/ml of normal human HDL”.

What about the “biological activity (HDL Inflammatory Index), D-4F versus Reverse D-4F” value [5] of the same compound?
The value was “not significantly different”.

And the “HDL function, D-4F alone” value ([1]; 1 μg/ml in drinking water for 24 hours)?
The value was “did not significantly improve HDL function; also recorded: no effect on HDL function”.

And the “HDL function, D-4F together with statin” value ([1]; D-4F 1 μg/ml together with 0.05 mg/ml of atorvastatin or pravastatin in drinking water)?
Its value is “significant improvement in HDL function”.

And the “anti-inflammatory activity of apoE null HDL compared with normal human HDL, D-4F together with statin” value ([1]; mouse HDL at 50 μg/ml of HDL-cholesterol, HPODE oxidizing PAPC in cocultures of human artery wall cells)?
The value was “as anti-inflammatory as 350 μg/ml of normal human HDL; also recorded: as effective as normal human HDL at 350 μg/ml of HDL-cholesterol”.

And the “trabecular bone mineral density” value [6]?
Its value is “dramatically increased”.

And the “symptoms of diabetes (blood glucose, lipid hydroperoxides)” value [7]?
The value was “effective in mitigating symptoms of diabetes”.

What about the “biological activity in producing HDL and pre-beta HDL that inhibit LDL-induced monocyte chemotaxis” value [8] of the same compound?
Its value is “very biologically active”.

What about the “association with pre-beta HDL and HDL” value [9] of the same compound?
Its value is “rapidly associates with pre-beta HDL and HDL”.

And the “detectability in the circulation” value [9]?
The value was “essentially non-detectable”.

Which “biological activity (HDL Inflammatory Index), D-4F versus Reverse D-4F” value [5] does the source give for “Ac-FAEKFKEAVKDYFAKFWD-NH2 [Reverse D-4F]” here?
The value was “not significantly different”.

Which “association with pre-beta HDL and HDL” value ([10]; after an oral dose) does the source give for “Ac-L V G R Q L E E F L-NH2 [D-[113-122]apoJ]” here?
The value was “slowly associates with pre-beta HDL and to a lesser extent with HDL”.

And the “time remaining associated with HDL fractions” value ([10]; mouse, in vivo)?
The value was “at least 36 hours”.

For Ac-LLEQLNEQFNWVSRLANLTQGE-NH2 [D-J336], which “in vitro concentration that prevents LDL-induced monocyte chemotactic activity, relative to the concentration required for D-4F” value [11] is on record?
The value was 10 to 25 times less.

And the “potency in preventing LDL oxidation by artery wall cells in vitro relative to D-4F” value [12]?
Its value is 10-25 times more potent.

And the “activity of mouse HDL in preventing control LDL from inducing monocyte chemotactic activity” value [3]?
Its value is “as active as 350 μg/ml of control human HDL”.

What about the “potency in enhancing HDL protective capacity compared with D-4F” value ([4]; added to the drinking water, apo E null mice) of the same compound?
Its value is “as potent as D-4F”.

What about the “activity of murine HDL against LDL-induced monocyte chemotactic activity” value [4] of the same compound?
Its value is “as active as 350 μg/ml of normal human HDL”.

What about the “potency in rendering LDL resistant to oxidation by human artery wall cells compared with D-4F” value [13] of the same compound?
The value was “slightly more potent than D-4F”.

And the “potency in causing HDL to inhibit oxidation of PAPC by HPODE compared with D-4F” value [14]?
Its value is “as potent as D-4F”.

What about the “potency in increasing paraoxonase activity compared with D-4F” value [15] of the same compound?
The value was “at least as potent as D-4F”.

Which “effect on seeding molecules (HPODE, HPETE) of human LDL” value [16] does the source give for “apo A-I: the major protein of HDL, apolipoprotein A-I” here?
The value was “removed seeding molecules from the LDL”.

And the “oxidation of LDL isolated after injection, by human artery wall cells” value [17]?
The value was “resistant to oxidation by human artery wall cells”.

What about the “oxidation of LDL isolated after infusion, by human artery wall cells” value [18] of the same compound?
The value was “resistant to oxidation by human artery wall cells”.
